Literature values, collected in patent US20060057203A1 (priority 2002, published 2006).

solubility in water: practically insoluble
SMILES: NC(=O)N1c2ccccc2CC(=O)c2ccccc21 [oxcarbazepine]
